Test results: ChEMBL document CHEMBL1122820, “Purine and 8-substituted purine arabinofuranosyl and ribofuranosyl nucleoside derivatives as potential inducers of the differentiation of the Friend erythroleukemia” (1985)

What was measured:
[1] = tested on: Erythroleukemia cell line; experiment: Compound was evaluated for the inhibition of Cellular Replication (deoxy-coformycin added at 25 uM); type: functional; conditions: Mus musculus, read-out: ID50 (the source's name)
[2] = tested on: Erythroleukemia cell line; experiment: Percent benzidine-positive cells in friend erythroleukemia cells was evaluated (deoxy-coformycin added at 25 uM); type: functional, Mus musculus
[3] = tested on: Erythroleukemia cell line; experiment: Optimum concentration for differentiation of friend erythroleukemia cells; type: functional, Mus musculus
[4] = tested on: Erythroleukemia cell line; experiment: Optimum concentration for the extent of differentiation of friend erythroleukemia cells was evaluated.(deoxy-coformycin added at 25 uM); type: functional, Mus musculus
[5] = tested on: Erythroleukemia cell line; experiment: Percent benzidine-positive cell differentiation in friend erythroleukemia cells; type: functional, Mus musculus
[6] = tested on: Erythroleukemia cell line; experiment: Inhibition of Cellular Replication of friend erythroleukemia cells; type: functional; conditions: Mus musculus, read-out: ID50 (the source's name)
[7] = tested on: Erythroleukemia cell line; experiment: Percent benzidine-positive cell differentiation of friend erythroleukemia cells was evaluated.(deoxy-coformycin added at 25 uM); type: functional, Mus musculus
[8] = tested on: Erythroleukemia cell line; experiment: Percent benzidine-positive cell differentiation of friend erythroleukemia cells was evaluated (deoxy-coformycin added at 25 uM); type: functional, Mus musculus

## Nc1ncnc2c1nc(Br)n2[C@@H]1O[C@H](CO)[C@@H](O)[C@H]1O
[1]
  IC50: > 1000 µM
[2]
  Differentiation: 1%
[3]
  Optimal concentration: 1 mM
[4]
  Optimal concentration: 1 mM
[5]
  Differentiation: 1%
[6]
  IC50: > 1000 µM

## OC[C@H]1O[C@@H](n2cnc3c(O)ncnc32)[C@@H](O)[C@@H]1O
[3]
  Optimal concentration: 0.2 mM
[5]
  Differentiation: 82%
[6]
  IC50: 600 µM

## [N-]=[N+]=Nc1nc2c(O)ncnc2n1[C@@H]1O[C@H](CO)[C@@H](O)[C@@H]1O
[3]
  Optimal concentration: 0.5 mM
[5]
  Differentiation: 20%
[6]
  IC50: 860 µM

## Nc1nc2c(O)ncnc2n1[C@@H]1O[C@H](CO)[C@@H](O)[C@H]1O
[3]
  Optimal concentration: 0.025 mM
[5]
  Differentiation: 1%
[6]
  IC50: 52 µM

## Nc1nc2c(O)ncnc2n1[C@@H]1O[C@H](CO)[C@@H](O)[C@@H]1O
[3]
  Optimal concentration: 4 mM
[5]
  Differentiation: 6%
[6]
  IC50: > 5000 µM

## [N-]=[N+]=Nc1nc2c(O)ncnc2n1[C@@H]1O[C@H](CO)[C@@H](O)[C@H]1O
[3]
  Optimal concentration: 1 mM
[5]
  Differentiation: 30%
[6]
  IC50: 720 µM

## CSc1ncnc2c1ncn2[C@@H]1O[C@H](CO)[C@@H](O)[C@@H]1O
[3]
  Optimal concentration: 1.5 mM
[5]
  Differentiation: 49%
[6]
  IC50: > 3000 µM

## OC[C@H]1O[C@@H](n2c(Br)nc3c(O)ncnc32)[C@@H](O)[C@@H]1O
[3]
  Optimal concentration: 4 mM
[5]
  Differentiation: 1%
[6]
  IC50: > 2500 µM

## CN(C)c1nc2c(O)ncnc2n1[C@@H]1O[C@H](CO)[C@@H](O)[C@@H]1O
[3]
  Optimal concentration: 8 mM
[5]
  Differentiation: 2%
[6]
  IC50: > 8000 µM

## Nc1ncnc2c1nc(Br)n2[C@@H]1O[C@H](CO)[C@@H](O)[C@@H]1O
[1]
  IC50: 850 µM
[7]
  Differentiation: 2%
[3]
  Optimal concentration: 1.6 mM
[4]
  Optimal concentration: 0.8 mM
[5]
  Differentiation: 1%
[6]
  IC50: 1600 µM

## OC[C@H]1O[C@@H](n2cnc3c(S)ncnc32)[C@@H](O)[C@@H]1O
[3]
  Optimal concentration: 0.02 mM
[5]
  Differentiation: 56%
[6]
  IC50: 110 µM

## OC[C@H]1O[C@@H](n2c(Br)nc3c(O)ncnc32)[C@H](O)[C@@H]1O
[3]
  Optimal concentration: 5 mM
[5]
  Differentiation: 1%
[6]
  IC50: > 5000 µM

## CN(C)c1nc2c(O)ncnc2n1[C@@H]1O[C@H](CO)[C@@H](O)[C@H]1O
[3]
  Optimal concentration: 8 mM
[5]
  Differentiation: 3%
[6]
  IC50: > 8000 µM

## OC[C@H]1O[C@@H](n2cnc3c(NO)ncnc32)[C@@H](O)[C@@H]1O
[1]
  IC50: 69 µM
[2]
  Differentiation: 20%
[3]
  Optimal concentration: 0.2 mM
[4]
  Optimal concentration: 0.04 mM
[5]
  Differentiation: 74%
[6]
  IC50: 540 µM

## [N-]=[N+]=N[C@H]1[C@H](O)[C@@H](CO)O[C@H]1n1cnc2c(O)ncnc21
[3]
  Optimal concentration: 2 mM
[5]
  Differentiation: 40%
[6]
  IC50: 6000 µM

## CSc1ncnc2c1ncn2[C@@H]1O[C@H](CO)[C@@H](O)[C@H]1O
[3]
  Optimal concentration: 0.005 mM
[5]
  Differentiation: 51%
[6]
  IC50: 7 µM

## OC[C@H]1OC(n2c(S)nc3c(O)ncnc32)[C@H](O)[C@@H]1O (stereo partly specified)
[3]
  Optimal concentration: 4 mM
[5]
  Differentiation: 1%
[6]
  IC50: > 4000 µM

## O=c1[nH]c(=O)c2nc(O)n(C3O[C@H](CO)[C@@H](O)[C@H]3O)c2[nH]1 (stereo partly specified)
[3]
  Optimal concentration: 7 mM
[5]
  Differentiation: 3%
[6]
  IC50: > 7000 µM

## O=c1[nH]c(=O)c2nc(Br)n(C3O[C@H](CO)[C@@H](O)[C@H]3O)c2[nH]1 (stereo partly specified)
[3]
  Optimal concentration: 7 mM
[5]
  Differentiation: 1%
[6]
  IC50: > 7000 µM

## O=c1[nH]c(=O)c2nc(OCc3ccccc3)n(C3O[C@H](CO)[C@@H](O)[C@H]3O)c2[nH]1 (stereo partly specified)
[3]
  Optimal concentration: 7 mM
[5]
  Differentiation: 6%
[6]
  IC50: > 7000 µM

## Nc1ncnc2c1ncn2[C@@H]1O[C@H](CO)[C@@H](O)[C@H]1O [ADENOSINE]
[1]
  IC50: 50 µM
[3]
  Optimal concentration: 4 mM
[8]
  Differentiation: 2%
[4]
  Optimal concentration: 0.04 mM
[5]
  Differentiation: 3%
[6]
  IC50: > 4000 µM

## C[S+](C)[O-] [DIMETHYL SULFOXIDE]
[3]
  Optimal concentration: 200 mM
[5]
  Differentiation: 70%

## O=c1[nH]cnc2c1ncn2[C@@H]1O[C@H](CO)[C@@H](O)[C@H]1O [INOSINE]
[3]
  Optimal concentration: 7 mM
[5]
  Differentiation: 12%
[6]
  IC50: > 7000 µM

## OC[C@H]1O[C@@H](n2cnc3c(S)ncnc32)[C@H](O)[C@@H]1O [THIOINOSINE]
[3]
  Optimal concentration: 1 mM
[5]
  Differentiation: 51%
[6]
  IC50: > 2000 µM

## Nc1ncnc2c1ncn2[C@@H]1O[C@H](CO)[C@@H](O)[C@@H]1O [VIDARABINE]
[1]
  IC50: 3 µM
[3]
  Optimal concentration: 0.08 mM
[8]
  Differentiation: 22%
[4]
  Optimal concentration: 0.002 mM
[5]
  Differentiation: 4%
[6]
  IC50: 94 µM

## OC[C@H]1O[C@@H](n2cnc3c(O)nc(O)nc32)[C@H](O)[C@@H]1O [XANTHOSINE]
[3]
  Optimal concentration: 7 mM
[6]
  IC50: > 7000 µM
